Test results: ChEMBL document CHEMBL1201862, “PubChem BioAssay data set” (2004)
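These data come from cells grown in 96-well plates and exposed to compound for 48 hours at five concentrations. GI50 marks 50% less growth.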 The source made the active and inactive calls. Rule as the data show it: active = GI50 up to about 1.1 µM and inactive = higher.

Legend:
Experiment in all cases: growth of human tumour cells (NCI), 48 h
786-0 = test system: 786-0
A549 = test system: A549
ACHN = test system: ACHN
BT-549 = test system: BT-549
CAKI-1 = test system: CAKI-1
CCRF-CEM = test system: CCRF-CEM
COLO 205 = test system: COLO 205
DU-145 = test system: DU-145
EKVX = test system: EKVX
HCC 2998 = test system: HCC 2998
HCT-116 = test system: HCT-116
HCT-15 = test system: HCT-15
HL-60 = test system: HL-60
HOP-62 = test system: HOP-62
HOP-92 = test system: HOP-92
HT-29 = test system: HT-29
Hs-578T = test system: Hs-578T
IGROV-1 = test system: IGROV-1
K562 = test system: K562
KM12 = test system: KM12
LOX IMVI = test system: LOX IMVI
M14 = test system: M14
MCF7 = test system: MCF7
MDA-MB-231 = test system: MDA-MB-231
MDA-MB-435 = test system: MDA-MB-435
MDA-N = test system: MDA-N
MOLT-4 = test system: MOLT-4
Malme-3M = test system: Malme-3M
NCI-H226 = test system: NCI-H226
NCI-H23 = test system: NCI-H23
NCI-H460 = test system: NCI-H460
NCI-H522 = test system: NCI-H522
NCI/ADR-RES = test system: NCI/ADR-RES
OVCAR-3 = test system: OVCAR-3
OVCAR-4 = test system: OVCAR-4
OVCAR-5 = test system: OVCAR-5
OVCAR-8 = test system: OVCAR-8
PC-3 = test system: PC-3
RPMI-8226 = test system: RPMI-8226
RXF 393 = test system: RXF 393
SF-268 = test system: SF-268
SF-295 = test system: SF-295
SF-539 = test system: SF-539
SK-MEL-28 = test system: SK-MEL-28
SK-MEL-2 = test system: SK-MEL-2
SK-MEL-5 = test system: SK-MEL-5
SK-OV-3 = test system: SK-OV-3
SN12C = test system: SN12C
SNB-19 = test system: SNB-19
SNB-75 = test system: SNB-75
SR = test system: SR
SW-620 = test system: SW-620
T47D = test system: T47D
TK-10 = test system: TK-10
U-251 = test system: U-251
UACC-257 = test system: UACC-257
UACC-62 = test system: UACC-62
UO-31 = test system: UO-31
A498 = test system: A498

## CC(C)OP(=O)(CCCCCCCCC/C=C/c1ccc2c(c1)OCCOCCOCCOCCO2)OC(C)C
786-0
  GI50: 3.78 µM (inactive)
A549
  GI50: 3.49 µM (inactive)
ACHN
  GI50: 3.48 µM (inactive)
BT-549
  GI50: 3.03 µM (inactive)
CAKI-1
  GI50: 3.51 µM (inactive)
CCRF-CEM
  GI50: 2.71 µM (inactive)
COLO 205
  GI50: 1.99 µM (inactive)
DU-145
  GI50: 4.59 µM (inactive)
EKVX
  GI50: 3.79 µM (inactive)
HCC 2998
  GI50: 4.04 µM (inactive)
HCT-116
  GI50: 3.38 µM (inactive)
HCT-15
  GI50: 2.46 µM
HL-60
  GI50: 7.67 µM (inactive)
HOP-62
  GI50: 2.42 µM (inactive)
HOP-92
  GI50: 2.2 µM (inactive)
HT-29
  GI50: 3.05 µM (inactive)
Hs-578T
  GI50: 2.45 µM (inactive)
IGROV-1
  GI50: 4.46 µM (inactive)
K562
  GI50: 6.37 µM (inactive)
KM12
  GI50: 2.8 µM (inactive)
LOX IMVI
  GI50: 2.16 µM (inactive)
M14
  GI50: 3.52 µM (inactive)
MCF7
  GI50: 3.23 µM (inactive)
MDA-MB-231
  GI50: 2.85 µM (inactive)
MDA-MB-435
  GI50: 3.87 µM (inactive)
MDA-N
  GI50: 3.4 µM (inactive)
MOLT-4
  GI50: 3.04 µM (inactive)
Malme-3M
  GI50: 3.73 µM (inactive)
NCI-H226
  GI50: 3.37 µM (inactive)
NCI-H23
  GI50: 2.85 µM (inactive)
NCI-H460
  GI50: 2.61 µM (inactive)
NCI-H522
  GI50: 2.76 µM (inactive)
NCI/ADR-RES
  GI50: 2.98 µM (inactive)
OVCAR-3
  GI50: 2.61 µM (inactive)
OVCAR-4
  GI50: 4.8 µM (inactive)
OVCAR-5
  GI50: 3.42 µM (inactive)
OVCAR-8
  GI50: 3.15 µM (inactive)
PC-3
  GI50: 2.84 µM (inactive)
RPMI-8226
  GI50: 1.41 µM (inactive)
RXF 393
  GI50: 2.7 µM (inactive)
SF-268
  GI50: 3.8 µM (inactive)
SF-295
  GI50: 3.08 µM (inactive)
SF-539
  GI50: 2.62 µM (inactive)
SK-MEL-28
  GI50: 6.61 µM (inactive)
SK-MEL-2
  GI50: 2.96 µM (inactive)
SK-MEL-5
  GI50: 2.74 µM (inactive)
SK-OV-3
  GI50: 3.19 µM (inactive)
SN12C
  GI50: 3.36 µM (inactive)
SNB-19
  GI50: 3.41 µM (inactive)
SNB-75
  GI50: 3.01 µM (inactive)
SR
  GI50: 4.22 µM (inactive)
SW-620
  GI50: 3.82 µM (inactive)
T47D
  GI50: 2.79 µM (inactive)
TK-10
  GI50: 9.29 µM (inactive)
U-251
  GI50: 2.75 µM (inactive)
UACC-257
  GI50: 2.88 µM (inactive)
UACC-62
  GI50: 3.79 µM (inactive)
UO-31
  GI50: 2.72 µM (inactive)

## CC1=NN(C(=O)CC(=O)Nc2ccccc2Cl)C(=O)C1/N=N\c1ccc(S(=O)(=O)c2ccc(/N=N/C3C(=O)N(C(=O)CC(=O)Nc4ccccc4Cl)N=C3C)cc2)cc1 (configuration not stated)
786-0
  GI50: > 100 µM (inactive)
A549
  GI50: > 100 µM (inactive)
ACHN
  GI50: > 100 µM (inactive)
BT-549
  GI50: > 100 µM (inactive)
CAKI-1
  GI50: > 100 µM (inactive)
CCRF-CEM
  GI50: > 100 µM (inactive)
COLO 205
  GI50: > 100 µM (inactive)
DU-145
  GI50: > 100 µM (inactive)
EKVX
  GI50: > 100 µM (inactive)
HCC 2998
  GI50: > 100 µM (inactive)
HCT-116
  GI50: > 100 µM (inactive)
HCT-15
  GI50: > 100 µM
HL-60
  GI50: > 100 µM (inactive)
HOP-62
  GI50: > 100 µM (inactive)
HOP-92
  GI50: > 100 µM (inactive)
HT-29
  GI50: > 100 µM (inactive)
Hs-578T
  GI50: > 100 µM (inactive)
IGROV-1
  GI50: > 100 µM (inactive)
K562
  GI50: > 100 µM (inactive)
KM12
  GI50: > 100 µM (inactive)
LOX IMVI
  GI50: 54.1 µM (inactive)
M14
  GI50: > 100 µM (inactive)
MCF7
  GI50: > 100 µM (inactive)
MDA-MB-231
  GI50: 30.5 µM (inactive)
MDA-MB-435
  GI50: > 100 µM (inactive)
MDA-N
  GI50: > 100 µM (inactive)
MOLT-4
  GI50: > 100 µM (inactive)
Malme-3M
  GI50: > 100 µM (inactive)
NCI-H226
  GI50: > 100 µM (inactive)
NCI-H23
  GI50: > 100 µM (inactive)
NCI-H460
  GI50: > 100 µM (inactive)
NCI-H522
  GI50: > 100 µM (inactive)
NCI/ADR-RES
  GI50: > 100 µM (inactive)
OVCAR-3
  GI50: > 100 µM (inactive)
OVCAR-4
  GI50: > 100 µM (inactive)
OVCAR-5
  GI50: > 100 µM (inactive)
OVCAR-8
  GI50: > 100 µM (inactive)
PC-3
  GI50: > 100 µM (inactive)
RPMI-8226
  GI50: > 100 µM (inactive)
RXF 393
  GI50: > 100 µM (inactive)
SF-268
  GI50: > 100 µM (inactive)
SF-295
  GI50: > 100 µM (inactive)
SF-539
  GI50: > 100 µM (inactive)
SK-MEL-28
  GI50: > 100 µM (inactive)
SK-MEL-2
  GI50: > 100 µM (inactive)
SK-MEL-5
  GI50: > 100 µM (inactive)
SK-OV-3
  GI50: > 100 µM (inactive)
SN12C
  GI50: > 100 µM (inactive)
SNB-19
  GI50: > 100 µM (inactive)
SNB-75
  GI50: > 100 µM (inactive)
SR
  GI50: > 100 µM (inactive)
SW-620
  GI50: > 100 µM (inactive)
T47D
  GI50: > 100 µM (inactive)
TK-10
  GI50: > 100 µM (inactive)
U-251
  GI50: > 100 µM (inactive)
UACC-257
  GI50: > 100 µM (inactive)
UACC-62
  GI50: > 100 µM (inactive)
UO-31
  GI50: > 100 µM (inactive)

## COc1cc(NP(=O)(Oc2ccccc2)Oc2ccccc2)ccc1Nc1c2ccccc2nc2c1[nH]c1ccccc12
786-0
  GI50: 0.278 µM (active)
A498
  GI50: 0.269 µM (active)
A549
  GI50: 0.16 µM (active)
ACHN
  GI50: 0.221 µM (active)
BT-549
  GI50: 5.51 µM (inactive)
CAKI-1
  GI50: 0.261 µM (active)
CCRF-CEM
  GI50: 0.183 µM (active)
COLO 205
  GI50: 2.81 µM (inactive)
DU-145
  GI50: 0.286 µM (active)
EKVX
  GI50: 9.71 µM (inactive)
HCC 2998
  GI50: 4.36 µM (inactive)
HCT-116
  GI50: 3.21 µM (inactive)
HCT-15
  GI50: 1.63 µM
HOP-62
  GI50: 0.359 µM (active)
HOP-92
  GI50: 0.933 µM (active)
HT-29
  GI50: 0.953 µM (active)
Hs-578T
  GI50: 17.1 µM (inactive)
IGROV-1
  GI50: 0.0923 µM (active)
K562
  GI50: 1.62 µM (inactive)
KM12
  GI50: 2.62 µM (inactive)
LOX IMVI
  GI50: 0.598 µM (active)
M14
  GI50: 0.891 µM (active)
MCF7
  GI50: 0.092 µM (active)
MDA-MB-231
  GI50: 4.68 µM (inactive)
MDA-MB-435
  GI50: 3.11 µM (inactive)
MDA-N
  GI50: 2.77 µM (inactive)
MOLT-4
  GI50: 0.0147 µM (active)
Malme-3M
  GI50: 4.46 µM (inactive)
NCI-H23
  GI50: 0.585 µM (active)
NCI-H460
  GI50: 0.0226 µM (active)
NCI-H522
  GI50: 1.6 µM (inactive)
NCI/ADR-RES
  GI50: 1.65 µM (inactive)
OVCAR-3
  GI50: 2.08 µM (inactive)
OVCAR-4
  GI50: 3.22 µM (inactive)
OVCAR-5
  GI50: 10.5 µM (inactive)
OVCAR-8
  GI50: 1.23 µM (inactive)
PC-3
  GI50: 4.41 µM (inactive)
RXF 393
  GI50: 2.46 µM (inactive)
SF-268
  GI50: 6.52 µM (inactive)
SF-295
  GI50: 0.344 µM (active)
SF-539
  GI50: 0.36 µM (active)
SK-MEL-28
  GI50: 16.2 µM (inactive)
SK-MEL-2
  GI50: 7.24 µM (inactive)
SK-MEL-5
  GI50: 1.22 µM (inactive)
SK-OV-3
  GI50: 1.88 µM (inactive)
SN12C
  GI50: 0.327 µM (active)
SNB-19
  GI50: 0.755 µM (active)
SNB-75
  GI50: 0.766 µM (active)
SR
  GI50: < 0.0158 µM (active)
SW-620
  GI50: 1.22 µM (inactive)
T47D
  GI50: 0.867 µM (active)
TK-10
  GI50: 3.01 µM (inactive)
U-251
  GI50: 0.524 µM (active)
UACC-257
  GI50: 7.71 µM (inactive)
UACC-62
  GI50: 2.4 µM (inactive)
UO-31
  GI50: 0.617 µM (active)
